According to patent US9290777B2, “Putative cytokinin receptor and methods for use thereof” (NATIONAL UNIVERSITY OF SINGAPORE, priority 2007, dated 2016):
“Also recorded” adds a separate entry of the source.

Test system: KNAT1
Experiment: qRT-PCR of cytokinin responsive gene after BA pulse, fold change vs untreated wild type
Format: cell-based, Arabidopsis thaliana

c1ccc(CNc2ncnc3nc[nH]c23)cc1 [benzyladenine]
KNAT1 transcripts in OE lines compared to untreated wild type (5 μM BA, 1 h, OE lines (e.g. OE1, OE12), listed as BA): less than a two fold change; also recorded: no significant difference | KNAT1 fold change (BA 0.01 μM, 5 min, AS1, ↑ up): 8.12↑ | KNAT1 fold change (BA 0.01 μM, 5 min, AS8, ↑ up): 9.1↑ | KNAT1 fold change (BA 0.01 μM, 5 min, AS21, ↑ up): 10.01↑ | KNAT1 fold change (BA 0.01 μM, 5 min, OE1, ↓ down): 4.01↓ | KNAT1 fold change (BA 0.01 μM, 5 min, OE12, ↓ down): 4.87↓ | KNAT1 fold change (BA 0.01 μM, 5 min, OE18, ↓ down): 6.56↓ | KNAT1 fold change (BA 0.01 μM, 5 min, Wild type, ↑ up): 2.13↑ | KNAT1 fold change (BA 0.01 μM, 15 min, AS1, ↑ up): 8.57↑ | KNAT1 fold change (BA 0.01 μM, 15 min, AS8, ↑ up): 9.21↑ | KNAT1 fold change (BA 0.01 μM, 15 min, AS21, ↑ up): 10.39↑ | KNAT1 fold change (BA 0.01 μM, 15 min, OE1, ↓ down): 3.86↓ | KNAT1 fold change (BA 0.01 μM, 15 min, OE12, ↓ down): 4.56↓ | KNAT1 fold change (BA 0.01 μM, 15 min, OE18, ↓ down): 6.32↓ | KNAT1 fold change (BA 0.01 μM, 15 min, Wild type, ↑ up): 2.67↑ | KNAT1 fold change (BA 0.01 μM, 30 min, AS1, ↑ up): 8.98↑ | KNAT1 fold change (BA 0.01 μM, 30 min, AS8, ↑ up): 9.86↑ | KNAT1 fold change (BA 0.01 μM, 30 min, AS21, ↑ up): 10.53↑ | KNAT1 fold change (BA 0.01 μM, 30 min, OE1, ↓ down): 3.41↓ | KNAT1 fold change (BA 0.01 μM, 30 min, OE12, ↓ down): 4.13↓ | KNAT1 fold change (BA 0.01 μM, 30 min, OE18, ↓ down): 6.13↓ | KNAT1 fold change (BA 0.01 μM, 30 min, Wild type, ↑ up): 2.98↑ | KNAT1 fold change (BA 0.01 μM, 1 h, AS1, ↑ up): 9.20↑ | KNAT1 fold change (BA 0.01 μM, 1 h, AS8, ↑ up): 9.98↑ | KNAT1 fold change (BA 0.01 μM, 1 h, AS21, ↑ up): 11.99↑ | KNAT1 fold change (BA 0.01 μM, 1 h, OE1, ↓ down): 3.01↓ | KNAT1 fold change (BA 0.01 μM, 1 h, OE12, ↓ down): 3.06↓ | KNAT1 fold change (BA 0.01 μM, 1 h, OE18, ↓ down): 5.98↓ | KNAT1 fold change (BA 0.01 μM, 1 h, Wild type, ↑ up): 3.15↑ | KNAT1 fold change (BA 0.1 μM, 5 min, AS1, ↑ up): 9.14↑ | KNAT1 fold change (BA 0.1 μM, 5 min, AS8, ↑ up): 10.12↑ | KNAT1 fold change (BA 0.1 μM, 5 min, AS21, ↑ up): 11.11↑ | KNAT1 fold change (BA 0.1 μM, 5 min, OE1, ↓ down): 3.56↓ | KNAT1 fold change (BA 0.1 μM, 5 min, OE12, ↓ down): 3.91↓ | KNAT1 fold change (BA 0.1 μM, 5 min, OE18, ↓ down): 5.89↓ | KNAT1 fold change (BA 0.1 μM, 5 min, Wild type, ↑ up): 3.36↑ | KNAT1 fold change (BA 0.1 μM, 15 min, AS1, ↑ up): 9.39↑ | KNAT1 fold change (BA 0.1 μM, 15 min, AS8, ↑ up): 10.32↑ | KNAT1 fold change (BA 0.1 μM, 15 min, AS21, ↑ up): 11.26↑ | KNAT1 fold change (BA 0.1 μM, 15 min, OE1, ↓ down): 3.24↓ | KNAT1 fold change (BA 0.1 μM, 15 min, OE12, ↓ down): 3.71↓ | KNAT1 fold change (BA 0.1 μM, 15 min, OE18, ↓ down): 5.72↓ | KNAT1 fold change (BA 0.1 μM, 15 min, Wild type, ↑ up): 3.58↑ | KNAT1 fold change (BA 0.1 μM, 30 min, AS1, ↑ up): 9.69↑ | KNAT1 fold change (BA 0.1 μM, 30 min, AS8, ↑ up): 10.57↑ | KNAT1 fold change (BA 0.1 μM, 30 min, AS21, ↑ up): 11.48↑ | KNAT1 fold change (BA 0.1 μM, 30 min, OE1, ↓ down): 3.12↓ | KNAT1 fold change (BA 0.1 μM, 30 min, OE12, ↓ down): 3.59↓ | KNAT1 fold change (BA 0.1 μM, 30 min, OE18, ↓ down): 5.36↓ | KNAT1 fold change (BA 0.1 μM, 30 min, Wild type, ↑ up): 3.89↑ | KNAT1 fold change (BA 0.1 μM, 1 h, AS1, ↑ up): 9.98↑ | KNAT1 fold change (BA 0.1 μM, 1 h, AS8, ↑ up): 10.99↑ | KNAT1 fold change (BA 0.1 μM, 1 h, AS21, ↑ up): 11.83↑ | KNAT1 fold change (BA 0.1 μM, 1 h, OE1, ↓ down): 2.96↓ | KNAT1 fold change (BA 0.1 μM, 1 h, OE12, ↓ down): 3.21↓ | KNAT1 fold change (BA 0.1 μM, 1 h, OE18, ↓ down): 5.01↓ | KNAT1 fold change (BA 0.1 μM, 1 h, Wild type, ↑ up): 3.99↑ | KNAT1 fold change (BA 1.0 μM, 5 min, AS1, ↑ up): 10.43↑ | KNAT1 fold change (BA 1.0 μM, 5 min, AS8, ↑ up): 11.01↑ | KNAT1 fold change (BA 1.0 μM, 5 min, AS21, ↑ up): 11.93↑ | KNAT1 fold change (BA 1.0 μM, 5 min, OE1, ↓ down): 2.76↓ | KNAT1 fold change (BA 1.0 μM, 5 min, OE12, ↓ down): 3.19↓ | KNAT1 fold change (BA 1.0 μM, 5 min, OE18, ↓ down): 4.36↓ | KNAT1 fold change (BA 1.0 μM, 5 min, Wild type, ↑ up): 4.1↑ | KNAT1 fold change (BA 1.0 μM, 15 min, AS1, ↑ up): 10.68↑ | KNAT1 fold change (BA 1.0 μM, 15 min, AS8, ↑ up): 11.43↑ | KNAT1 fold change (BA 1.0 μM, 15 min, AS21, ↑ up): 12.02↑ | KNAT1 fold change (BA 1.0 μM, 15 min, OE1, ↓ down): 2.51↓ | KNAT1 fold change (BA 1.0 μM, 15 min, OE12, ↓ down): 3.01↓ | KNAT1 fold change (BA 1.0 μM, 15 min, OE18, ↓ down): 4.21↓ | KNAT1 fold change (BA 1.0 μM, 15 min, Wild type, ↑ up): 4.31↑ | KNAT1 fold change (BA 1.0 μM, 30 min, AS1, ↑ up): 10.73↑ | KNAT1 fold change (BA 1.0 μM, 30 min, AS8, ↑ up): 11.69↑ | KNAT1 fold change (BA 1.0 μM, 30 min, AS21, ↑ up): 12.35↑ | KNAT1 fold change (BA 1.0 μM, 30 min, OE1, ↓ down): 2.29↓ | KNAT1 fold change (BA 1.0 μM, 30 min, OE12, ↓ down): 2.89↓ | KNAT1 fold change (BA 1.0 μM, 30 min, OE18, ↓ down): 4.01↓ | KNAT1 fold change (BA 1.0 μM, 30 min, Wild type, ↑ up): 4.59↑ | KNAT1 fold change (BA 1.0 μM, 1 h, AS1, ↑ up): 11.01↑ | KNAT1 fold change (BA 1.0 μM, 1 h, AS8, ↑ up): 11.93↑ | KNAT1 fold change (BA 1.0 μM, 1 h, AS21, ↑ up): 12.76↑ | KNAT1 fold change (BA 1.0 μM, 1 h, OE1, ↓ down): 2.01↓ | KNAT1 fold change (BA 1.0 μM, 1 h, OE12, ↓ down): 2.16↓ | KNAT1 fold change (BA 1.0 μM, 1 h, OE18, ↓ down): 3.92↓ | KNAT1 fold change (BA 1.0 μM, 1 h, Wild type, ↑ up): 4.87↑ | KNAT1 fold change (BA 5.0 μM, 5 min, AS1, ↑ up): 10.98↑ | KNAT1 fold change (BA 5.0 μM, 5 min, AS8, ↑ up): 11.98↑ | KNAT1 fold change (BA 5.0 μM, 5 min, AS21, ↑ up): 12.43↑ | KNAT1 fold change (BA 5.0 μM, 5 min, OE1, ↓ down): 2.19↓ | KNAT1 fold change (BA 5.0 μM, 5 min, OE12, ↓ down): 2.87↓ | KNAT1 fold change (BA 5.0 μM, 5 min, OE18, ↓ down): 3.45↓ | KNAT1 fold change (BA 5.0 μM, 5 min, Wild type, ↑ up): 5.52↑ | KNAT1 fold change (BA 5.0 μM, 15 min, AS1, ↑ up): 11.01↑ | KNAT1 fold change (BA 5.0 μM, 15 min, AS8, ↑ up): 12.07↑ | KNAT1 fold change (BA 5.0 μM, 15 min, AS21, ↑ up): 12.54↑ | KNAT1 fold change (BA 5.0 μM, 15 min, OE1, ↓ down): 2.01↓ | KNAT1 fold change (BA 5.0 μM, 15 min, OE12, ↓ down): 2.62↓ | KNAT1 fold change (BA 5.0 μM, 15 min, OE18, ↓ down): 3.18↓ | KNAT1 fold change (BA 5.0 μM, 15 min, Wild type, ↑ up): 5.69↑ | KNAT1 fold change (BA 5.0 μM, 30 min, AS1, ↑ up): 11.23↑ | KNAT1 fold change (BA 5.0 μM, 30 min, Wild type, ↑ up): 5.89↑ | KNAT1 transcripts, dose dependence (BA 0.01-5 μM pulse, 5 min-1 h): dose-dependent increase
